Laboratory results from US10570116B2, “1,4-dicarbonyl-piperidyl derivatives” (Merck Patent GmbH, priority 2015, dated 2020).
Like-named read-outs stand apart in the source and are kept apart here.

Experiments:
Tankyrases = assay: Measurement of cellular inhibition of Tankyrase (Axin2 level, Luminex based assay, DLD1 cells); format: cell-based; details: increase of Axin2 level, 24 hours, read-out: EC50 [M] TNKS cellular assay
TNKS1 = TNKS1 (Homo sapiens (Human), UniProt O95271); assay: biochemical; format: biochemical
TNKS2 = TNKS2 (Homo sapiens (Human), UniProt Q9H2K2); assay: biochemical; format: biochemical
[1] = GST-tagged Tnks-1 (1023-1327 aa), read-out: IC50 [M] TNKS1 ELISA
[2] = GST-tagged Tnks-2 (873-1166 aa), read-out: IC50 [M] TNKS2 ELISA

Row | Compound | EC50 (Tankyrases) | IC50 (TNKS1; [1]) | IC50 (TNKS2; [2]) | IC50 (TNKS1) | IC50 (TNKS2)
1 | CC(C)CC(CC(=O)N1CCC(C(=O)c2cnn(C)c2)CC1)Cc1nc2ccccc2c(=O)[nH]1 (stereo in doubt) [Compound C10, 2-((S)-4-Methyl-2-{2-[4-(1-methyl-1H-pyrazole-4-carbonyl)-piperidin-1-yl]-2-oxo-ethyl}-pentyl)-3H-quinazolin-4-one] | 9e-08 M | – | – | – | –
2 | CC(C)CC(CC(=O)N1CCC(C(=O)c2cnn(C)c2)CC1)Cc1nc2ccccc2c(=O)[nH]1 (stereo in doubt) [Compound C11, 2-((R)-4-Methyl-2-{2-[4-(1-methyl-1H-pyrazole-4-carbonyl)-piperidin-1-yl]-2-oxo-ethyl}-pentyl)-3H-quinazolin-4-one] | 5e-09 M | – | – | – | –
3 | Cn1cc(C(=O)C2CCN(C(=O)CC(C)(C)Cc3nc4ccccc4c(=O)[nH]3)CC2)cn1 [Compound C1, 2-{2,2-Dimethyl-4-[4-(1-methyl-1H-pyrazole-4-carbonyl)-piperidin-1-yl]-4-oxo-butyl}-3H-quinazolin-4-one] | 4.5e-09 M | 5.7e-10 M | 3.7e-10 M | – | –
4 | C[C@H](CC(=O)N1CCC(C(=O)c2cnn(C)c2)CC1)Cc1nc2ccccc2c(=O)[nH]1 [Compound C2, 2-{(S)-2-Methyl-4-[4-(1-methyl-1H-pyrazole-4-carbonyl)-piperidin-1-yl]-4-oxo-butyl}-3H-quinazolin-4-one] | 4.7e-09 M | – | – | – | –
5 | C[C@@H](CC(=O)N1CCC(C(=O)c2cnn(C)c2)CC1)Cc1nc2ccccc2c(=O)[nH]1 [Compound C3, 2-{(R)-2-Methyl-4-[4-(1-methyl-1H-pyrazole-4-carbonyl)-piperidin-1-yl]-4-oxo-butyl}-3H-quinazolin-4-one] | 3e-08 M | – | – | – | –
6 | CC(C)n1cc(C(=O)C2CCN(C(=O)C[C@@H](C)Cc3nc4ccccc4c(=O)[nH]3)CC2)cn1 [Compound C4, 2-{(S)-4-[4-(1-Isopropyl-1H-pyrazole-4-carbonyl)-piperidin-1-yl]-2-methyl-4-oxo-butyl}-3H-quinazolin-4-one] | 4.7e-09 M | – | – | – | –
7 | CC(C)n1cc(C(=O)C2CCN(C(=O)C[C@H](C)Cc3nc4ccccc4c(=O)[nH]3)CC2)cn1 [Compound C5, 2-{(R)-4-[4-(1-Isopropyl-1H-pyrazole-4-carbonyl)-piperidin-1-yl]-2-methyl-4-oxo-butyl}-3H-quinazolin-4-one] | 3.9e-08 M | – | – | – | –
8 | CC(C)[C@H](CC(=O)N1CCC(C(=O)c2cnn(C)c2)CC1)Cc1nc2ccccc2c(=O)[nH]1 [Compound C8, 2-((S)-3-Methyl-2-{2-[4-(1-methyl-1H-pyrazole-4-carbonyl)-piperidin-1-yl]-2-oxo-ethyl}-butyl)-3H-quinazolin-4-one] | 9.2e-09 M | – | – | – | –
9 | CC(C)[C@@H](CC(=O)N1CCC(C(=O)c2cnn(C)c2)CC1)Cc1nc2ccccc2c(=O)[nH]1 [Compound C9, 2-((R)-3-Methyl-2-{2-[4-(1-methyl-1H-pyrazole-4-carbonyl)-piperidin-1-yl]-2-oxo-ethyl}-butyl)-3H-quinazolin-4-one] | 1.4e-07 M | – | – | – | –
10 | Cn1cc(C(=O)C2CCN(C(=O)CC3(Cc4nc5ccccc5c(=O)[nH]4)CC3)CC2)cn1 [Compound C12, 2-(1-{2-[4-(1-Methyl-1H-pyrazole-4-carbonyl)-piperidin-1-yl]-2-oxo-ethyl}-cyclopropylmethyl)-3H-quinazolin-4-one] | 2.3e-08 M | 2.2e-09 M | 1e-09 M | – | –
11 | Cn1cc(C(=O)C2CCN(C(=O)C(C)(C)CCc3nc4ccccc4c(=O)[nH]3)CC2)cn1 [Compound C13, 2-{3,3-Dimethyl-4-[4-(1-methyl-1H-pyrazole-4-carbonyl)-piperidin-1-yl]-4-oxo-butyl}-3H-quinazolin-4-one] | 2.3e-06 M | 6.1e-07 M | 4.2e-07 M | – | –
12 | Cn1cc(C(=O)C2CCN(C(=O)CCC(C)(C)c3nc4ccccc4c(=O)[nH]3)CC2)cn1 [Compound C14, 2-{1,1-Dimethyl-4-[4-(1-methyl-1H-pyrazole-4-carbonyl)-piperidin-1-yl]-4-oxo-butyl}-3H-quinazolin-4-one] | – | 6.3e-08 M | 4.4e-08 M | – | –
13 | COc1ccc(C(=O)C2CCN(C(=O)CCC(C)(C)c3nc4ccccc4c(=O)[nH]3)CC2)cc1 [Compound C15, 2-{4-[4-(4-Methoxy-benzoyl)-piperidin-1-yl]-1,1-dimethyl-4-oxo-butyl}-3H-quinazolin-4-one] | 6.2e-08 M | 9.2e-09 M | 5e-09 M | – | –
14 | COc1ccc(C(=O)C2CCN(C(=O)CC(C)(C)Cc3nc4c(ccn4C)c(=O)[nH]3)CC2)cn1 [Compound C16, 2-{4-[4-(6-Methoxy-pyridine-3-carbonyl)-piperidin-1-yl]-2,2-dimethyl-4-oxo-butyl}-7-methyl-3,7-dihydro-pyrrolo[2,3-d]pyrimidin-4-one] | 4.1e-09 M | 6.1e-10 M | 4.1e-10 M | – | –
15 | CC(C)n1cc(C(=O)C2CCN(C(=O)CC(C)(C)Cc3nc4c(ccn4C)c(=O)[nH]3)CC2)cn1 [Compound C19, 2-{4-[4-(1-Isopropyl-1H-pyrazole-4-carbonyl)-piperidin-1-yl]-2,2-dimethyl-4-oxo-butyl}-7-methyl-3,7-dihydro-pyrrolo[2,3-d]pyrimidin-4-one] | 9.3e-09 M | 1.3e-09 M | 5.8e-10 M | – | –
16 | COc1ccc(C(=O)C2CCN(C(=O)COCc3nc4ccccc4c(=O)[nH]3)CC2)cc1 [Compound C23, 2-{2-[4-(4-Methoxy-benzoyl)-piperidin-1-yl]-2-oxo-ethoxymethyl}-3H-quinazolin-4-one] | 2.6e-08 M | 6.3e-09 M | 2.1e-09 M | – | –
17 | Cn1cc(C(=O)C2CCN(C(=O)COCc3nc4ccccc4c(=O)[nH]3)CC2)cn1 [Compound C24, 2-{2-[4-(1-Methyl-1H-pyrazole-4-carbonyl)-piperidin-1-yl]-2-oxo-ethoxymethyl}-3H-quinazolin-4-one] | 1e-07 M | 2.7e-08 M | 1.2e-08 M | – | –
18 | COc1ccc(C(=O)C2CCN(C(=O)COCc3nc4ccccc4c(=O)[nH]3)CC2)cn1 [Compound C25, 2-{2-[4-(6-Methoxy-pyridine-3-carbonyl)-piperidin-1-yl]-2-oxo-ethoxymethyl}-3H-quinazolin-4-one] | 6.4e-08 M | 3.6e-08 M | 1.2e-08 M | – | –
19 | COc1ccc(C(=O)C2CCN(C(=O)COCc3nc4c(F)cc(F)cc4c(=O)[nH]3)CC2)cc1 [Compound C26, 6,8-Difluoro-2-{2-[4-(4-methoxy-benzoyl)-piperidin-1-yl]-2-oxo-ethoxymethyl}-3H-quinazolin-4-one] | 2.3e-08 M | 7.7e-09 M | 3e-09 M | – | –
20 | Cn1cc(C(=O)C2CCN(C(=O)COCc3nc4c(F)cc(F)cc4c(=O)[nH]3)CC2)cn1 [Compound C27, 6,8-Difluoro-2-{2-[4-(1-methyl-1H-pyrazole-4-carbonyl)-piperidin-1-yl]-2-oxo-ethoxymethyl}-3H-quinazolin-4-one] | – | – | – | 2.9e-08 M | 1.3e-08 M
21 | COc1ccc(C(=O)C2CCN(C(=O)COCc3nc4c(F)cc(F)cc4c(=O)[nH]3)CC2)cn1 [Compound C28, 6,8-Difluoro-2-{2-[4-(6-methoxy-pyridine-3-carbonyl)-piperidin-1-yl]-2-oxo-ethoxymethyl}-3H-quinazolin-4-one] | 1e-07 M | 3.4e-08 M | 1.2e-08 M | – | –
22 | COc1ccc(C(=O)C2CCN(C(=O)NCCc3nc4ccccc4c(=O)[nH]3)CC2)cc1 [Compound C29, 4-(4-Methoxy-benzoyl)-piperidine-1-carboxylic acid [2-(4-oxo-3,4-dihydro-quinazolin-2-yl)-ethyl]-amide] | – | 1.8e-09 M | 8.4e-10 M | – | –
23 | COc1ccc(C(=O)C2CCN(C(=O)N(C)CCc3nc4ccccc4c(=O)[nH]3)CC2)cc1 [Compound C30, 4-(4-Methoxy-benzoyl)-piperidine-1-carboxylic acid methyl-[2-(4-oxo-3,4-dihydro-quinazolin-2-yl)-ethyl]-amide] | – | 6.2e-10 M | 5.7e-10 M | – | –
24 | CN(CCc1nc2ccccc2c(=O)[nH]1)C(=O)N1CCC(C(=O)c2cnn(C)c2)CC1 [Compound C31, 4-(1-Methyl-1H-pyrazole-4-carbonyl)-piperidine-1-carboxylic Acid methyl-[2-(4-oxo-3,4-dihydro-quinazolin-2-yl)-ethyl]-amide] | 2.3e-08 M | 3e-09 M | 2.2e-09 M | – | –
25 | CC(C)(CC(=O)N1CCC(C(=O)c2cccc(C(=O)O)c2)CC1)Cc1nc2ccccc2c(=O)[nH]1 [Compound C35, 3-{1-[3,3-Dimethyl-4-(4-oxo-3,4-dihydro-quinazolin-2-yl)-butyryl]-piperidine-4-carbonyl}-benzoic Acid] | 5.5e-06 M | – | – | – | –
26 | Cc1cccc2c(=O)[nH]c(CC(C)(C)CC(=O)N3CCC(C(=O)c4cccc(C(=O)O)c4)CC3)nc12 [Compound C37, 3-{1-[3,3-Dimethyl-4-(8-methyl-4-oxo-3,4-dihydro-quinazolin-2-yl)-butyryl]-piperidine-4-carbonyl}-benzoic Acid] | 4.8e-07 M | – | – | – | –
27 | COC(=O)c1cccc(C(=O)C2CCN(C(=O)C[C@H](C)Cc3nc4c(C)cccc4c(=O)[nH]3)CC2)c1 [Compound C42, 3-{1-[(R)-3-Methyl-4-(8-methyl-4-oxo-3,4-dihydro-quinazolin-2-yl)-butyryl]-piperidine-4-carbonyl}-benzoic Acid Methyl Ester] | 2.5e-08 M | – | – | – | –
28 | COC(=O)c1cccc(C(=O)C2CCN(C(=O)C[C@@H](C)Cc3nc4c(C)cccc4c(=O)[nH]3)CC2)c1 [Compound C43, 3-{1-[(S)-3-Methyl-4-(8-methyl-4-oxo-3,4-dihydro-quinazolin-2-yl)-butyryl]-piperidine-4-carbonyl}-benzoic Acid Methyl Ester] | 4.7e-10 M | – | – | – | –
29 | Cc1cccc2c(=O)[nH]c(C[C@@H](C)CC(=O)N3CCC(C(=O)c4cccc(C(=O)O)c4)CC3)nc12 [Compound C44, 3-{1-[(R)-3-Methyl-4-(8-methyl-4-oxo-3,4-dihydro-quinazolin-2-yl)-butyryl]-piperidine-4-carbonyl}-benzoic Acid] | 5.3e-06 M | – | – | – | –
30 | Cc1cccc2c(=O)[nH]c(C[C@H](C)CC(=O)N3CCC(C(=O)c4cccc(C(=O)O)c4)CC3)nc12 [Compound C45, 3-{1-[(S)-3-Methyl-4-(8-methyl-4-oxo-3,4-dihydro-quinazolin-2-yl)-butyryl]-piperidine-4-carbonyl}-benzoic acid] | 8.9e-08 M | – | – | – | –
